Structure (SMILES) | melting point
Cc1ccc(N2C(=O)C(O)=C(C(=O)c3ccc(C4CCCCC4)cc3)C2c2ccc(OC(F)(F)F)cc2)nn1 (stereo not given) | 283 to 286 °C
COC(=O)COC(=O)COc1ccc(N)cc1 | 76.5 to 78.5 °C
CCCCc1cc(C(=O)O)ncc1C(=O)O | 239 °C
CCOC(=O)C(=O)CC(=O)c1cn(Cc2ccc([N+](=O)[O-])cc2)c2ccccc2c1=O | 175 to 176 °C
O=C1c2ccc(OC3CC3)cc2CCC1CN1CCC(O)(c2ccccc2)CC1 (stereo not given) | 187 to 189 °C
CN1CCC(Oc2ccccn2)(c2ccccc2)CC1 | 95 to 96 °C
O=C(c1ccccc1)c1cnn2c(-c3cccc(C(F)(F)F)c3)ccnc12 | 148 to 150 °C
Cc1ccc2c(c1O)N=CC1CCCN1C2=O (stereo not given) | 148 to 150 °C
CCN(c1nc2c(cc1CN(Cc1cc(C(F)(F)F)cc(C(F)(F)F)c1)c1nnn(C)n1)c(C)nn2C)C1CCCC1 | 43 to 44 °C
Fc1cccc(Cl)c1-c1c(Cl)cc(-n2cncn2)nc1Cl | 210 °C
CCC(C(=O)Nc1c(C)cccc1C)N1C(=O)c2ccccc2C1=O (stereo not given) | 195 to 196 °C
CCOc1cc(C)ccc1C1CCN(CCCCNC(=O)c2ccc(NC(=O)c3ccc(Cl)cc3)cc2)CC1 | 254 °C
CCCCSC(=NC(C)=O)Nc1c(Cl)cccc1Cl | 84 to 89 °C
CN(C(=O)Nc1ccccc1)C1CCCCC1 | 195 to 197 °C
CCNC(=O)Nc1nc2cc(-c3cccnc3)cc(C(=O)OC)n2n1 | 211 to 213 °C
Cc1cnc2c(S(=O)(=O)N[C@@H](CCCc3cn(C(c4ccccc4)(c4ccccc4)c4ccccc4)cn3)C(=O)O)cccc2c1 | 170 °C
O=C(O)C1CCN(CC2CN(CC3CCN(c4ccncc4)CC3)C(=O)O2)CC1 (stereo not given) | 94 to 96 °C
CON=CC1=CCCN(C(=O)OCC(N)=O)C1 | 131 to 133 °C
COc1ccc(COc2ccc(-c3ccc(C(=O)O)c(=O)[nH]3)cc2OC)cc1OC | 217 to 218 °C
COc1cc(C(=O)N2CCC(CCN3CCC(C(=O)c4nc5ccccc5n4CCCC(=O)O)CC3)(c3ccc(Cl)c(Cl)c3)C2)cc(OC)c1OC (stereo not given) | 125 to 140 °C
Cn1ccnc1Sc1ccc(Nc2c(C#N)cnc3cc(-c4csc(CN5CCOCC5)c4)ccc23)cc1Cl | 110 to 113 °C
CC1CCN(C2=NCC(=O)N(C)c3ccccc32)CC1 | 106 to 108 °C
CC(C)(C)OC(=O)Nc1ccccc1NC(=O)c1ccc(CBr)cc1 | 282 to 283 °C
O=C(CBr)c1ccc2nnnn2c1 | 108 to 110 °C
CSc1nc(N)nc(N2CCc3ccccc3CC2)c1C#N | 164 to 168 °C

Structure (SMILES) | melting point
COC=C(C(=O)OC)c1ccccc1CSc1ccc2ccccc2c1 | 52 to 58 °C
C[C@@](O)(C(=O)Nc1ccc(S(=O)(=O)c2ccc(F)cc2)cc1Cl)C(F)(F)F | 131 to 133 °C
Cc1ccn2c(=O)c(CCN3CCC(c4c[nH]c5ccccc45)CC3)c(C)nc2c1 | 236 °C
Clc1ccc2nc(-c3ccsc3)c(I)n2n1 | 203 to 206 °C
O=C1C(=Cn2ccnc2)CSc2ccccc21 | 139 to 140 °C
CC(O)C(C)(C)NC(=S)NC(=O)c1ccccc1 (stereo not given) | 136 to 138 °C
CCCCOc1nc(N)c2nc(OC)n(CCCBr)c2n1 | 200 to 201 °C
CCCCC[C@H]1CC[C@H](CSc2cc(O)c3c(c2N)C(=O)c2ccccc2C3=O)CC1 | 129 to 130 °C
CNc1cc(N2CCC(c3ccccc3)CC2)nc(C)n1 | 186 to 188 °C
O=C1N(Cc2ccc3ccccc3c2)c2ccccc2N=C2CCCC12Cc1ccc2ccccc2c1 (stereo not given) | 191 to 193 °C
CN(C)c1ccc(C(=O)CCCCC2CCN(Cc3ccccc3)CC2)cc1 | 121 to 123 °C
CCc1cc(C(=O)c2ccccc2Cl)c(-n2c(C)nnc2CCl)s1 | 109 to 110 °C
CNCC1CCN(c2c(F)cc3c(=O)c(C(=O)O)cn(C4CC4)c3c2OC)C1 (stereo not given) | 226 to 230 °C
Cc1nc(S(=O)Cc2ccc(Cl)cc2)nc2c1CCCC2 (stereo not given) | 127 °C
Cc1cc(C(=O)CCc2cc(-c3ccc(C(F)(F)F)cc3)nn2Cc2ccccc2)ccc1OC(C)(C)C(=O)O | 55 °C
O=C(c1ccccc1)N(CC(=O)N1c2ccccc2N(Cc2ccccc2)C(=O)[C@H]2CCC[C@H]21)Cc1ccccc1 (relative stereo) | 166 to 168 °C
Cc1nc2cnc(N3CCN(CCCC(=O)c4ccc(F)cc4)CC3)cc2[nH]1 | 180 to 183 °C
CCNS(=O)(=O)c1ccc(NC(C)=O)cc1 | 90 to 91 °C
O=C(O)CCc1cn(Cc2ccc(OCc3ccoc3)cc2)cc1-c1ccccc1 | 110 to 111 °C
Oc1cc(-c2ccccc2)cc(-c2ccccc2)c1 | 97 °C
CC(=O)N(CCCC(=O)c1ccccc1)C(C)C | 36 to 39 °C
CCN1CCC(O)(c2cc(F)cc(Cl)c2)C1 (stereo not given) | 117 to 118 °C
CCCc1cc(Cl)c2oc(Cc3ccc(Cl)cc3)c(C)c2c1O | 76 to 77 °C
Cc1cc2nc(C(=O)NC(Cc3ccc(OCc4ccccc4)cc3)C(=O)O)cn2cc1-c1ccc(Cl)cc1 (stereo not given) | 248 to 249 °C
Cc1nc2c(s1)-c1nc(Nc3ccc(Cl)nc3)ncc1CC2 | 252 to 253 °C

Structure (SMILES) | melting point
N#CC1CCCCn2cccc21 (stereo not given) | 70 to 72 °C
CNC(=S)C1(c2cccnc2)CCCCS1 (stereo not given) | 131 °C
CCc1c(C2=NC(C)(C)CO2)ccc(C2=NC(C)(C)CO2)c1CC | 49 to 50 °C
CCOC(=O)C(Cl)=Cc1cc(-n2ncc(C(F)(F)F)cc2=O)c(F)cc1Cl | 139 to 140 °C
O=C1C(=O)c2ccccc2C2=C1SCC1(CCN(C(=O)c3cccc(Cl)c3)CC1)O2 | 155 to 158 °C
O=[N+]([O-])c1ccc2c(c1)CCN(Cc1ccccc1)C2 | 76 to 78 °C
COc1ccc(C2Nc3ccc(Cl)cc3C(C#CC3CC3)(C(F)(F)F)O2)cc1 (stereo not given) | 130 to 132 °C
O=C1NCN2c3ccc([N+](=O)[O-])cc3Sc3cccc1c32 | 205 to 208 °C
Nc1c([N+](=O)[O-])cnc2sccc12 | 227 to 228 °C
O=C(O)Cc1ccc(SCc2ccccc2C(=O)O)cc1 | 169 °C
O=C(Nc1ccc2c(c1)CCSC2)OCc1ccccc1 | 116 to 118 °C
COc1ccc(CC#N)c(CC#N)c1 | 49 to 51 °C
O=C(O)c1cccn1Cc1ccco1 | 117 to 118 °C
CN1C(=O)CN=C(c2ccccc2F)c2c1ccc(NC(=O)NC(C)(C)C)c2Cl | 206 to 208 °C
O=C(O)Cc1ccn2c(=O)c(C(=O)O)ccc2c1 | > 250 °C
ON=C(Cc1ccc(Cl)cc1)c1ccc(Cl)cc1Cl | 91 °C
O=C(CCl)N1CCN(C(=O)CCl)CC1 | 104 to 107 °C
O=CCCCN1C(=O)c2ccccc2C1=O | 70 °C
N#CC(CC1CCCCC1)c1ccc(Cl)cc1Cl (stereo not given) | 58.8 °C
CC(=O)Oc1cc2c(cc1C=O)C1CCC3(C)C(O)CCC3C1CC2 (stereo not given) | 73 to 75 °C
CC(C)(C)OC(=O)Nc1ccc(C#Cc2ccc(OC(F)(F)F)cc2)cc1N | 167 to 169 °C
Fc1ccc(Nc2ncnc3cnc(N4CCCCCC4)nc23)cc1Cl | 87 to 90 °C
CS(=O)(=O)c1ccc(-c2ccc(C3C(CCC(O)c4ccc(F)cc4)C(=O)N3c3ccc(F)cc3)cc2)cc1 (stereo not given) | 111 °C
CCN(Cc1cc(Br)ccc1OCc1ccccc1)c1ncc(C(=O)NS(=O)(=O)c2ccccc2)s1 | 140 to 145 °C
CC1(c2ccc(-c3ccc(Cl)cc3)cc2)CC(=O)NN1 (stereo not given) | 214 to 215 °C

Structure (SMILES) | melting point
C=C(C)c1cccc2c(C(=O)O)cccc12 | 138 to 140 °C
CCCCCCCCCCCCCCCCOc1cccc(O)c1 | 58 to 59 °C
O=C(O)CCC1(NC(=O)c2ccc(Cl)c(Cl)c2)C(=O)N(CCCc2ccccc2)c2ccccc21 (stereo not given) | 242 to 243 °C
O=[N+]([O-])c1ccc(N2CCC(Nc3ncnc4c3ncn4[C@@H]3C[C@H](CO)[C@@H](O)[C@H]3O)C2)cc1 (stereo not given in full) | 119 to 120 °C
CCOC(=O)[C@H](CC(C)C)SC[C@H](O)[C@H](CC1CCCCC1)NC(=O)[C@H](Cc1c[nH]cn1)NC(=O)[C@H](Cc1ccccc1)NC(=O)OC(C)(C)C | > 82 °C
N#Cc1ccc(OCc2ccc3c(c2)OCO3)cc1F | 139 to 140 °C
COc1cc(OCC(=O)O)c(C)cc1SCc1ccc(-c2c(C)cc(C)cc2C)cc1 | 141 °C
Cc1cc(Nc2ccc(Cl)c(Cl)c2)nc(-n2nc(C)cc2C)n1 | 135 to 138 °C
CNC(=S)OCc1nc(C(C)C)c(Sc2cc(Cl)cc(Cl)c2)n1C | 119 to 121 °C
COc1ccc(C2=NC(C)(C)CO2)cc1N | 108 to 110 °C
O=CCc1ccc2c(c1[N+](=O)[O-])C(=O)c1ccccc1C2=O | 192 °C
Cc1nc(C(F)(F)F)ccc1C(=O)C1=C(S(=O)(=O)c2ccccc2)CCCC1=O | 165 to 167 °C
O=S(=O)(NCCc1ccc(Nc2nnn[nH]2)cc1)c1ccc(Cl)cc1 | 148 to 150 °C
COc1cc2cc(C(=O)N3CC(CCl)c4c3cc([N+](=O)[O-])c3cc(S(=O)(=O)NCCO)ccc43)[nH]c2c(OC)c1OC (stereo not given) | 257 to 258 °C
CC1(S(C)(=O)=O)C(I)=C(S(C)(=O)=O)C=CC1C(=O)O (stereo not given) | 66 to 67 °C
NC(Cc1c2ccccc2cc2ccccc12)(C(=O)O)C1CC(C(=O)O)C1 (stereo not given) | 213 to 216 °C
CCc1cccc(CC)c1NC(=S)NC(C)(C)CC | 85 to 87 °C
c1ccc(-c2ccc(COc3ccc4c(c3)CCC(CCn3ccnc3)C4)cc2)cc1 (stereo not given) | 145 to 146 °C
COC(=O)[C@H](Cc1ccc(-c2ccccc2)cc1)NC(=O)OC(C)(C)C | 83 to 85 °C
Cn1ncc(C(=O)c2ccc(Cl)cc2Cl)c1Cl | 81 to 83 °C
CCCCCCCc1ccc(C(=O)CCCCC(=O)O)cc1 | 80 to 81 °C
O=c1oc(OCCBr)c(Cl)c2ccccc12 | 183 to 185 °C
O=C1NC(=O)C(Cc2ccc(OCCNc3nc4ccccc4o3)cc2)S1 (stereo not given) | 202 to 203 °C
CCCCNc1nc(C)c(C(=O)OCC)c2c1nnn2CC | 85 to 87 °C
Cc1nc2cc(C#N)ccc2n1-c1ccc(C(=O)N(C)[C@@H]2CCNC2)cc1 | 178 to 180 °C

Source: a melting point compilation (Tetko et al.; mined from patent text by program, amines drawn as free bases though some values may be those of a salt)
